From PubChem BioAssay (NCI)
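Following 48 hours of exposure in 96-well plates, responses at five concentrations were used to interpolate endpoints linearly. TGI is the concentration that stops growth completely.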

Tests used:
Assay in all cases: NCI anticancer screen, dose series, 48 h
786-0 renal = test system: 786-0 renal
A549 NSCLC = test system: A549 NSCLC
ACHN renal = test system: ACHN renal
BT-549 breast = test system: BT-549 breast
CAKI-1 renal = test system: CAKI-1 renal
CCRF-CEM leukemia = test system: CCRF-CEM leukemia
COLO 205 colon = test system: COLO 205 colon
DU-145 prostate = test system: DU-145 prostate
EKVX NSCLC = test system: EKVX NSCLC
HCC-2998 colon = test system: HCC-2998 colon
HCT-116 colon = test system: HCT-116 colon
HCT-15 colon = test system: HCT-15 colon
HL-60(TB) leukemia = test system: HL-60(TB) leukemia
HOP-62 NSCLC = test system: HOP-62 NSCLC
HOP-92 NSCLC = test system: HOP-92 NSCLC
HS 578T breast = test system: HS 578T breast
HT29 colon = test system: HT29 colon
IGROV1 ovarian = test system: IGROV1 ovarian
K-562 leukemia = test system: K-562 leukemia
KM12 colon = test system: KM12 colon
LOX IMVI melanoma = test system: LOX IMVI melanoma
M14 melanoma = test system: M14 melanoma
MALME-3M melanoma = test system: MALME-3M melanoma
MCF7 breast = test system: MCF7 breast
MDA-MB-231 breast = test system: MDA-MB-231 breast
MDA-MB-435 = test system: MDA-MB-435
MDA-N = test system: MDA-N
MOLT-4 leukemia = test system: MOLT-4 leukemia
NCI-H226 lung = test system: NCI-H226 lung
NCI-H23 lung = test system: NCI-H23 lung
NCI-H460 lung = test system: NCI-H460 lung
NCI-H522 lung = test system: NCI-H522 lung
NCI/ADR-RES ovarian = test system: NCI/ADR-RES ovarian
OVCAR-3 ovarian = test system: OVCAR-3 ovarian
OVCAR-4 ovarian = test system: OVCAR-4 ovarian
OVCAR-5 ovarian = test system: OVCAR-5 ovarian
OVCAR-8 ovarian = test system: OVCAR-8 ovarian
PC-3 prostate = test system: PC-3 prostate
RPMI-8226 leukemia = test system: RPMI-8226 leukemia
RXF 393 renal = test system: RXF 393 renal
SF-268 CNS = test system: SF-268 CNS
SF-295 CNS = test system: SF-295 CNS
SF-539 CNS = test system: SF-539 CNS
SK-MEL-2 melanoma = test system: SK-MEL-2 melanoma
SK-MEL-28 melanoma = test system: SK-MEL-28 melanoma
SK-MEL-5 melanoma = test system: SK-MEL-5 melanoma
SK-OV-3 ovarian = test system: SK-OV-3 ovarian
SN12C renal = test system: SN12C renal
SNB-19 CNS = test system: SNB-19 CNS
SNB-75 CNS = test system: SNB-75 CNS
SW-620 colon = test system: SW-620 colon
T-47D breast = test system: T-47D breast
TK-10 renal = test system: TK-10 renal
U251 CNS = test system: U251 CNS
UACC-257 melanoma = test system: UACC-257 melanoma
UACC-62 melanoma = test system: UACC-62 melanoma
UO-31 renal = test system: UO-31 renal
A498 renal = test system: A498 renal
SR leukemia = test system: SR leukemia

Molecule `Cn1c2ccccc2c(=NNc2cccc(C(=O)O)c2)c2ccccc21` has a TGI (786-0 renal) of 52 µM, a TGI (A549 NSCLC) of 27.3 µM and a TGI (ACHN renal) of 35.5 µM. The TGI (BT-549 breast) was 62.8 µM, the TGI (CAKI-1 renal) was 73.3 µM and the TGI (CCRF-CEM leukemia) was 25.6 µM. The TGI (COLO 205 colon) was 28.5 µM, the TGI (DU-145 prostate) was 47.8 µM and the TGI (EKVX NSCLC) was 28.7 µM. For the same molecule, the TGI (HCC-2998 colon) was 14.9 µM, the TGI (HCT-116 colon) was 28.2 µM and the TGI (HCT-15 colon) was 51.4 µM. It also gave a TGI (HL-60(TB) leukemia) of 33.5 µM, a TGI (HOP-62 NSCLC) of 47.8 µM and a TGI (HOP-92 NSCLC) of 51.2 µM. For the same molecule, the TGI (HS 578T breast) was 64.7 µM, the TGI (HT29 colon) was 14.7 µM and the TGI (IGROV1 ovarian) was 66.2 µM. It also gave a TGI (K-562 leukemia) of 13.8 µM, a TGI (KM12 colon) of 47.5 µM and a TGI (LOX IMVI melanoma) of 17.9 µM. For the same molecule, the TGI (M14 melanoma) was 39.1 µM, the TGI (MALME-3M melanoma) was 38.3 µM and the TGI (MCF7 breast) was 11.7 µM. The TGI (MDA-MB-231 breast) was 41 µM, the TGI (MDA-MB-435) was 27.1 µM and the TGI (MDA-N) was 31.3 µM. It also gave a TGI (MOLT-4 leukemia) of 22.7 µM, a TGI (NCI-H226 lung) of 48.6 µM and a TGI (NCI-H23 lung) of 32 µM. The TGI (NCI-H460 lung) was 22 µM, the TGI (NCI-H522 lung) was 21 µM and the TGI (NCI/ADR-RES ovarian) was 67.7 µM. It also gave a TGI (OVCAR-3 ovarian) of 11.9 µM, a TGI (OVCAR-4 ovarian) of 40.3 µM and a TGI (OVCAR-5 ovarian) of 41.6 µM. It also gave a TGI (OVCAR-8 ovarian) of 53.3 µM, a TGI (PC-3 prostate) of 23.6 µM and a TGI (RPMI-8226 leukemia) of 28.3 µM. For the same molecule, the TGI (RXF 393 renal) was 22 µM, the TGI (SF-268 CNS) was 39 µM and the TGI (SF-295 CNS) was 58.5 µM. For the same molecule, the TGI (SF-539 CNS) was 46.9 µM, the TGI (SK-MEL-2 melanoma) was 35.4 µM and the TGI (SK-MEL-28 melanoma) was 35.7 µM. The TGI (SK-MEL-5 melanoma) was 28.9 µM, the TGI (SK-OV-3 ovarian) was 49.6 µM and the TGI (SN12C renal) was 30.3 µM. For the same molecule, the TGI (SNB-19 CNS) was greater than 100 µM, the TGI (SNB-75 CNS) was 54 µM and the TGI (SW-620 colon) was 35.5 µM. The TGI (T-47D breast) was 40.9 µM, the TGI (TK-10 renal) was 59.2 µM and the TGI (U251 CNS) was 28.7 µM. It also gave a TGI (UACC-257 melanoma) of 58.6 µM, a TGI (UACC-62 melanoma) of 39.8 µM and a TGI (UO-31 renal) of 46.3 µM.
`COc1c(CCl)cc(-c2cc(=O)c3ccccc3s2)cc1CCl` was tested, and the TGI (786-0 renal) was 1.74 µM, the TGI (A498 renal) was 90.7 µM and the TGI (A549 NSCLC) was greater than 100 µM. It also gave a TGI (ACHN renal) greater than 100 µM, a TGI (BT-549 breast) greater than 100 µM and a TGI (CAKI-1 renal) greater than 100 µM. It also gave a TGI (COLO 205 colon) greater than 100 µM, a TGI (DU-145 prostate) greater than 100 µM and a TGI (EKVX NSCLC) greater than 100 µM. It also gave a TGI (HCT-116 colon) greater than 100 µM, a TGI (HCT-15 colon) greater than 100 µM and a TGI (HL-60(TB) leukemia) greater than 23.6 µM. For the same molecule, the TGI (HOP-62 NSCLC) was 32.6 µM, the TGI (HOP-92 NSCLC) was 1.8 µM and the TGI (HS 578T breast) was 59.6 µM. The TGI (IGROV1 ovarian) was greater than 100 µM, the TGI (K-562 leukemia) was greater than 100 µM and the TGI (KM12 colon) was greater than 100 µM. For the same molecule, the TGI (M14 melanoma) was greater than 100 µM, the TGI (MCF7 breast) was greater than 22.7 µM and the TGI (MDA-MB-435) was greater than 100 µM. It also gave a TGI (MDA-N) greater than 100 µM, a TGI (NCI-H226 lung) greater than 31.6 µM and a TGI (NCI-H23 lung) greater than 100 µM. The TGI (NCI-H460 lung) was greater than 100 µM, the TGI (NCI/ADR-RES ovarian) was greater than 100 µM and the TGI (OVCAR-3 ovarian) was greater than 100 µM. For the same molecule, the TGI (OVCAR-4 ovarian) was 16.4 µM, the TGI (OVCAR-5 ovarian) was greater than 100 µM and the TGI (OVCAR-8 ovarian) was greater than 100 µM. It also gave a TGI (PC-3 prostate) greater than 100 µM, a TGI (RPMI-8226 leukemia) greater than 100 µM and a TGI (RXF 393 renal) of 3.2 µM. The TGI (SF-268 CNS) was greater than 100 µM, the TGI (SF-295 CNS) was 36.1 µM and the TGI (SF-539 CNS) was greater than 42.3 µM. It also gave a TGI (SK-MEL-2 melanoma) greater than 100 µM, a TGI (SK-MEL-28 melanoma) greater than 100 µM and a TGI (SK-MEL-5 melanoma) greater than 100 µM. The TGI (SK-OV-3 ovarian) was greater than 60.2 µM, the TGI (SN12C renal) was greater than 100 µM and the TGI (SNB-19 CNS) was greater than 88.9 µM. For the same molecule, the TGI (SNB-75 CNS) was 24.9 µM, the TGI (SR leukemia) was greater than 100 µM and the TGI (T-47D breast) was 4.03 µM. The TGI (TK-10 renal) was 99.7 µM, the TGI (U251 CNS) was greater than 59.8 µM and the TGI (UACC-257 melanoma) was greater than 100 µM. For the same molecule, the TGI (UACC-62 melanoma) was greater than 100 µM and the TGI (UO-31 renal) was 3.84 µM.
